Results reported in ChEMBL document CHEMBL5543142, “Discovery of YFJ-36: Design, Synthesis, and Antibacterial Activities of Catechol-Conjugated β-Lactams against Gram-Negative Bacteria” (J Med Chem, 2024).

Legend:
Format in all cases: functional
Conditions in all cases: time 18-20 hrs
[1] = system: Escherichia coli; experiment: Antibacterial activity against ESBL-producing multidrug-resistant Escherichia coli clinical isolate 14-1 assessed as inhibition of bacterial growth incubated for 18 to 20 hrs by two fold serial dilution assay
[2] = system: Escherichia coli; experiment: Antibacterial activity against ESBL-producing multidrug-resistant Escherichia coli clinical isolate 14-2 assessed as inhibition of bacterial growth incubated for 18 to 20 hrs by two fold serial dilution assay
[3] = system: Escherichia coli; experiment: Antibacterial activity against ESBL-producing multidrug-resistant Escherichia coli clinical isolate 14-4 assessed as inhibition of bacterial growth incubated for 18 to 20 hrs by two fold serial dilution assay
[4] = system: Acinetobacter baumannii; experiment: Antibacterial activity against OXA-23 producing multidrug-resistant Acinetobacter baumannii clinical isolate 15-1 assessed as inhibition of bacterial growth incubated for 18 to 20 hrs by two fold serial dilution assay
[5] = system: Acinetobacter baumannii; experiment: Antibacterial activity against OXA-23 producing multidrug-resistant Acinetobacter baumannii clinical isolate 15-2 assessed as inhibition of bacterial growth incubated for 18 to 20 hrs by two fold serial dilution assay
[6] = system: Acinetobacter baumannii; experiment: Antibacterial activity against OXA-23 producing multidrug-resistant Acinetobacter baumannii clinical isolate 15-3 assessed as inhibition of bacterial growth incubated for 18 to 20 hrs by two fold serial dilution assay
[7] = system: Acinetobacter baumannii; experiment: Antibacterial activity against OXA-23 producing multidrug-resistant Acinetobacter baumannii clinical isolate 15-4 assessed as inhibition of bacterial growth incubated for 18 to 20 hrs by two fold serial dilution assay
[8] = system: Acinetobacter baumannii; experiment: Antibacterial activity against OXA-23 producing multidrug-resistant Acinetobacter baumannii clinical isolate 15-5 assessed as inhibition of bacterial growth incubated for 18 to 20 hrs by two fold serial dilution assay
[9] = system: Klebsiella pneumoniae; experiment: Antibacterial activity against KPC-2 producing multidrug-resistant Klebsiella pneumoniae clinical isolate 15-1 assessed as inhibition of bacterial growth incubated for 18 to 20 hrs by two fold serial dilution assay
[10] = system: Klebsiella pneumoniae; experiment: Antibacterial activity against KPC-2 producing multidrug-resistant Klebsiella pneumoniae clinical isolate 15-2 assessed as inhibition of bacterial growth incubated for 18 to 20 hrs by two fold serial dilution assay
[11] = system: Klebsiella pneumoniae; experiment: Antibacterial activity against KPC-2 producing multidrug-resistant Klebsiella pneumoniae clinical isolate 15-5 assessed as inhibition of bacterial growth incubated for 18 to 20 hrs by two fold serial dilution assay
[12] = system: Escherichia coli; experiment: Antibacterial activity against Escherichia coli ATCC35218 assessed as inhibition of bacterial growth incubated for 18 to 20 hrs by two fold serial dilution assay
[13] = system: Pseudomonas aeruginosa; experiment: Antibacterial activity against IMP-4 producing multidrug-resistant Pseudomonas aeruginosa clinical isolate 17-13 assessed as inhibition of bacterial growth incubated for 18 to 20 hrs by two fold serial dilution assay
[14] = system: Pseudomonas aeruginosa; experiment: Antibacterial activity against IMP-4 producing multidrug-resistant Pseudomonas aeruginosa clinical isolate 19-17 assessed as inhibition of bacterial growth incubated for 18 to 20 hrs by two fold serial dilution assay
[15] = system: Klebsiella pneumoniae; experiment: Antibacterial activity against KPC-2 producing multidrug-resistant Klebsiella pneumoniae clinical isolate 15-3 assessed as inhibition of bacterial growth incubated for 18 to 20 hrs by two fold serial dilution assay
[16] = system: Pseudomonas aeruginosa; experiment: Antibacterial activity against IMP-4 producing multidrug-resistant Pseudomonas aeruginosa clinical isolate 17-1 assessed as inhibition of bacterial growth incubated for 18 to 20 hrs by two fold serial dilution assay
[17] = system: Pseudomonas aeruginosa; experiment: Antibacterial activity against Pseudomonas aeruginosa ATCC 27853 assessed as inhibition of bacterial growth incubated for 18 to 20 hrs by two fold serial dilution assay
[18] = system: Pseudomonas aeruginosa; experiment: Antibacterial activity against IMP-4 producing multidrug-resistant Pseudomonas aeruginosa clinical isolate 15-1 assessed as inhibition of bacterial growth incubated for 18 to 20 hrs by two fold serial dilution assay
[19] = system: Pseudomonas aeruginosa; experiment: Antibacterial activity against IMP-4 producing multidrug-resistant Pseudomonas aeruginosa clinical isolate 15-4 assessed as inhibition of bacterial growth incubated for 18 to 20 hrs by two fold serial dilution assay
[20] = system: Pseudomonas aeruginosa; experiment: Antibacterial activity against IMP-4 producing multidrug-resistant Pseudomonas aeruginosa clinical isolate 15-5 assessed as inhibition of bacterial growth incubated for 18 to 20 hrs by two fold serial dilution assay
[21] = system: Acinetobacter baumannii; experiment: Antibacterial activity against OXA-23 producing multidrug-resistant Acinetobacter baumannii clinical isolate 17-2 assessed as inhibition of bacterial growth incubated for 18 to 20 hrs by two fold serial dilution assay
[22] = system: Pseudomonas aeruginosa; experiment: Antibacterial activity against IMP-4 producing multidrug-resistant Pseudomonas aeruginosa clinical isolate 19-5 assessed as inhibition of bacterial growth incubated for 18 to 20 hrs by two fold serial dilution assay
[23] = system: Pseudomonas aeruginosa; experiment: Antibacterial activity against IMP-4 producing multidrug-resistant Pseudomonas aeruginosa clinical isolate 19-1 assessed as inhibition of bacterial growth incubated for 18 to 20 hrs by two fold serial dilution assay

SMILES	MIC [1]	MIC [2]	MIC [3]	MIC [4]	MIC [5]	MIC [6]	MIC [7]	MIC [8]	MIC [9]	MIC [10]	MIC [11]	MIC [12]	MIC [13]	MIC [14]	MIC [15]	MIC [16]	other results
Nc1nc(/C(=N/OC(C(=O)O)C2CCSCC2)C(=O)N[C@@H]2C(=O)N3C(C(=O)O)=C(CSCCNC(=O)c4ccc(O)c(O)c4Cl)CS[C@H]23)cs1.O=C(O)C(F)(F)F (stereo partly drawn)	0.125 µg/mL	0.5 µg/mL	0.25 µg/mL	4 µg/mL	8 µg/mL	4 µg/mL	8 µg/mL	4 µg/mL	2 µg/mL	4 µg/mL	8 µg/mL	0.25 µg/mL	1 µg/mL	0.5 µg/mL	4 µg/mL	–	–
C[C@@](O/N=C(\C(=O)N[C@@H]1C(=O)N2C(C(=O)O)=C(CSCCNC(=O)c3ccc(O)c(O)c3Cl)CS[C@H]12)c1csc(N)n1)(C(=O)O)C(F)(F)F.O=C(O)C(F)(F)F	0.125 µg/mL	0.5 µg/mL	0.5 µg/mL	16 µg/mL	32 µg/mL	32 µg/mL	16 µg/mL	16 µg/mL	1 µg/mL	1 µg/mL	1 µg/mL	0.06 µg/mL	0.125 µg/mL	0.5 µg/mL	2 µg/mL	4 µg/mL	–
CC(C)(O/N=C(\C(=O)N[C@@H]1C(=O)N2C(C(=O)O)=C(CSCCCNC(=O)c3ccc(O)c(O)c3Cl)CS[C@H]12)c1csc(N)n1)C(=O)O.O=C(O)C(F)(F)F	0.125 µg/mL	2 µg/mL	16 µg/mL	32 µg/mL	64 µg/mL	32 µg/mL	64 µg/mL	64 µg/mL	16 µg/mL	4 µg/mL	4 µg/mL	–	–	–	8 µg/mL	–	MIC [17]: 4 µg/mL; MIC [18]: 1 µg/mL; MIC [19]: 2 µg/mL; MIC [20]: 4 µg/mL
Nc1nc(/C(=N/OC(C(=O)O)C2CCC2)C(=O)N[C@@H]2C(=O)N3C(C(=O)O)=C(CSCCNC(=O)c4ccc(O)c(O)c4Cl)CS[C@H]23)cs1.O=C(O)C(F)(F)F (stereo partly drawn)	0.5 µg/mL	4 µg/mL	0.25 µg/mL	32 µg/mL	32 µg/mL	16 µg/mL	32 µg/mL	64 µg/mL	8 µg/mL	4 µg/mL	4 µg/mL	0.125 µg/mL	1 µg/mL	0.5 µg/mL	16 µg/mL	8 µg/mL	–
Nc1nc(/C(=N/OC(C(=O)O)C2CCS(=O)(=O)CC2)C(=O)N[C@@H]2C(=O)N3C(C(=O)O)=C(CSCCNC(=O)c4ccc(O)c(O)c4Cl)CS[C@H]23)cs1.O=C(O)C(F)(F)F (stereo partly drawn)	1 µg/mL	1 µg/mL	0.5 µg/mL	2 µg/mL	2 µg/mL	2 µg/mL	4 µg/mL	4 µg/mL	2 µg/mL	2 µg/mL	0.5 µg/mL	–	1 µg/mL	2 µg/mL	2 µg/mL	–	–
Nc1nc(/C(=N/OC(C(=O)O)C2CCOCC2)C(=O)N[C@@H]2C(=O)N3C(C(=O)O)=C(CSCCNC(=O)c4ccc(O)c(O)c4Cl)CS[C@H]23)cs1.O=C(O)C(F)(F)F (stereo partly drawn)	8 µg/mL	16 µg/mL	4 µg/mL	32 µg/mL	32 µg/mL	16 µg/mL	32 µg/mL	16 µg/mL	16 µg/mL	16 µg/mL	16 µg/mL	4 µg/mL	1 µg/mL	8 µg/mL	8 µg/mL	–	–
CC(C)(O/N=C(\C(=O)N[C@@H]1C(=O)N2C(C(=O)O)=C(CSCCNC(=O)c3ccc(O)c(O)c3Cl)CS[C@H]12)c1csc(N)n1)C(=O)O.O=C(O)C(F)(F)F	0.25 µg/mL	2 µg/mL	1 µg/mL	32 µg/mL	32 µg/mL	32 µg/mL	32 µg/mL	64 µg/mL	8 µg/mL	4 µg/mL	2 µg/mL	–	–	–	8 µg/mL	–	MIC [17]: 0.5 µg/mL; MIC [18]: 2 µg/mL; MIC [19]: 4 µg/mL; MIC [20]: 4 µg/mL
Nc1nc(/C(=N/OC(C(=O)O)C2CC2)C(=O)N[C@@H]2C(=O)N3C(C(=O)O)=C(CSCCNC(=O)c4ccc(O)c(O)c4Cl)CS[C@H]23)cs1.O=C(O)C(F)(F)F (stereo partly drawn)	0.5 µg/mL	4 µg/mL	0.5 µg/mL	32 µg/mL	64 µg/mL	64 µg/mL	64 µg/mL	64 µg/mL	16 µg/mL	4 µg/mL	4 µg/mL	0.25 µg/mL	1 µg/mL	1 µg/mL	64 µg/mL	1 µg/mL	–
Nc1nc(/C(=N/OC(C(=O)O)C2CCCC2)C(=O)N[C@@H]2C(=O)N3C(C(=O)O)=C(CSCCNC(=O)c4ccc(O)c(O)c4Cl)CS[C@H]23)cs1.O=C(O)C(F)(F)F (stereo partly drawn)	0.25 µg/mL	2 µg/mL	0.25 µg/mL	32 µg/mL	16 µg/mL	16 µg/mL	16 µg/mL	32 µg/mL	2 µg/mL	2 µg/mL	2 µg/mL	0.25 µg/mL	8 µg/mL	1 µg/mL	4 µg/mL	1 µg/mL	–
Cc1sc(N)nc1/C(=N/OC(C(=O)O)C1CCC(F)(F)CC1)C(=O)N[C@@H]1C(=O)N2C(C(=O)O)=C(CSCCNC(=O)c3ccc(O)c(O)c3Cl)CS[C@H]12.O=C(O)C(F)(F)F (stereo partly drawn)	0.5 µg/mL	1 µg/mL	0.5 µg/mL	4 µg/mL	2 µg/mL	4 µg/mL	4 µg/mL	2 µg/mL	2 µg/mL	4 µg/mL	2 µg/mL	0.25 µg/mL	0.25 µg/mL	0.25 µg/mL	8 µg/mL	–	MIC [21]: 0.125 µg/mL; MIC [22]: 1 µg/mL; MIC [23]: 8 µg/mL
